# Source: a melting point compilation (Tetko et al.; mined from patent text by program, amines drawn as free bases though some values may be those of a salt)
row,Compound,melting point
1,CN1CNC(=N[N+](=O)[O-])N(Cc2ccc(Cl)nc2)C1,150 to 154 °C
2,COCC1CN(c2cccnc2)C(=O)O1 (racemic),65 to 66 °C
3,CCc1cccc2sc(COc3ccc(F)c(C(N)=O)c3F)nc12,184 to 186 °C
4,CN=C(O)c1c(Cl)c(Cl)c(Sc2ccc(C)cc2)c(Cl)c1C(=O)O,209 to 216 °C
5,CC(c1oc2ccccc2c(=O)c1-c1cccc(F)c1)n1nc(-c2ccc3cc[nH]c3c2)c2c(N)ncnc21 (centres undefined),222 to 225 °C
6,CC(C)N(C(=O)c1ccc(OCCCCCOc2ccc(C(N)=NO)cc2)cc1O)C(C)C,195 to 197 °C
7,CC12C=CCC1C1CCC3CCCCC3C1CC2 (centres undefined),165 to 166 °C
8,CS(=O)(=O)c1c(Cl)nc(N)nc1Cl,275 °C
9,O=C(O)c1nn(Cc2cccc(O)c2)c2c1CCc1cc(OCc3cncnc3)ccc1-2,251 to 256 °C
10,OCc1cncn1Cc1ccccc1,131 to 135 °C
11,CC(=O)N1CCC[C@H]1C(=O)Nc1ccc(S(N)(=O)=O)cc1,283 to 285 °C
12,CNC(=O)NNC1=NS(=O)(=O)c2ccccc21,183 °C
13,CC(=O)OC1CSC(Oc2cnccc2-c2ccc(C(F)(F)F)cc2)C(OC(C)=O)C1OC(C)=O (centres undefined),168 °C
14,Nc1ccc(OCc2ccccc2)cc1[N+](=O)[O-],139 to 141 °C
15,C[C@@H](n1ccn(-c2ccc(OCC(F)(F)C(F)F)cc2)c1=O)[C@](O)(CO)c1ccccc1F,166 to 167 °C
16,Cc1ccc(S(=O)(=O)c2ccccc2)nc1,117 to 118 °C
17,COc1ccc(NC(=O)NCc2cccc3c2C(=O)N(C2CCC(=O)NC2=O)C3=O)cc1 (centres undefined),205 to 207 °C
18,CN(C)CCN(C)C(=O)Cc1ccc(NC(=O)c2ccc(-c3ccccc3)cc2)cc1,135 to 136 °C
19,CN1C(=S)C(NC(=O)CCC2CCCCC2)N=C(c2ccccc2)c2ccccc21 (centres undefined),219 to 221 °C
20,O=C(C/C=C/c1ccccc1)Nc1cccc(-n2ccnc2)c1,130 to 133 °C

row,Compound,melting point
1,Nc1nc(Nc2cccnc2)nn1-c1ccccn1,256 °C
2,CC(=O)Nc1c(C(=O)c2cnccn2)[nH]c2cc(Cl)ccc12,269 to 271 °C
3,Cc1cscc1NC(=S)Nc1cccc(Cl)c1N,298 to 305 °C
4,CN1CC(CCCCN2CCN(c3ncccn3)CC2)OC1=O (centres undefined),74 to 76 °C
5,CSC(=NC(=O)c1ccccc1)N1CC=C(c2cccc(C(F)(F)F)c2)n2ncc(C(N)=O)c21,172 to 175 °C
6,COc1cc(Nc2nccc(-c3ccc(N(C)CCN(C)C)nc3)n2)cc(OC)c1OC,97 to 98 °C
7,CCNC(=O)Nc1cnc2ccc(Nc3ccc(C)cc3)nc2n1,235 °C
8,O=C(Nc1nccs1)C(CC1CCCC1)c1ccc(-c2ccc3[nH]ccc3c2)cc1 (centres undefined),112 to 115 °C
9,O=[N+]([O-])c1ccc(F)c(-c2cncnc2)c1F,78 to 80 °C
10,COc1ccc(S(=O)(=O)Nc2ccccc2NC(=O)c2ccco2)cc1,158 to 159 °C
11,O=C(CN1C(=O)C2(COc3cc(F)c(F)cc32)c2ccccc21)Nc1ccccc1F (centres undefined),97 to 100 °C
12,O=c1c(-c2ccc(Cl)cc2)c2c(cn1CO)Sc1ccccc1N2,> 300 °C
13,COc1ccc(-c2cnn3c(N)c(-c4ccc(F)c(F)c4)c(C)nc23)cc1OC,230 to 235 °C
14,COCC(=O)OC(CC1CC1)c1ccc(Cl)c2nc3n(c12)CCCN3c1ccc(Cl)cc1Cl (centres undefined),159 to 161 °C
15,Cc1ccc(CNc2ccc(Cl)cc2Cl)c(C)c1,88 to 90 °C
16,CN(C)S(=O)(=O)c1cc([N+](=O)[O-])c(N)c([N+](=O)[O-])c1,169 to 170 °C
17,C#Cc1cn(C2CC(F)C(COC(c3ccccc3)(c3ccccc3)c3ccccc3)O2)c(=O)[nH]c1=O (centres undefined),54 °C
18,COc1ccccc1C(=O)OCC(=O)c1ccccc1,78 to 79 °C
19,Cn1c2ncccc2c(=O)n2nccc12,249 °C
